According to article PMC7518156 (PeerJ, 2020):
Entries after “also recorded” stand apart in the source; their conditions may differ. Like-named read-outs stand apart in the source and are kept apart here.

Test: Pharmacokinetics of ERL and GEF in Wistar rats after four weeks consumption of water or flavoured water (plasma, UPLC-MS/MS, non-compartmental analysis)
Type: in vivo
Details: for concentration at 0 h / concentration at 0.5 h / concentration at 1 h / concentration at 2 h / concentration at 3 h / concentration at 5 h / concentration at 24 h / concentration at 48 h / AUC(0-inf) / CL/F / Cmax / Tmax / AUC(0-t) / half-life / AUC: male, Wistar, rat, plasma, 20 mg/kg; for Tmax: read-out: tmax; for AUC(0-t): read-out: AUC0-48; for half-life: read-out: t½ (converted)
Experimental: Fifty healthy male Wistar rats weighing 250 ± 30 g were obtained from the animal house, College of Pharmacy, King Saud University, Riyadh, Saudi Arabia. Rats were randomly divided into ten cages (n = 5). All individualized ventilated cages (IVC) type IV used in this study were of 20″L × 11″W × 9″ in dimension capable of hosting 4–5 rats. Cages density, bedding, and sanitation frequency was similar in all cages. Cages were housed at room temperature (25 °C) and at an average relative humidity of 50%. Daily observation of all rats was required to ensure that all animals maintained good health. All animal experiments strictly followed the guidelines of the Ethical Committee for Performing Studies on Animals, King Saud University, Riyadh, Saudi Arabia, protocol number KSU-SE-19-13.
Four types of FW, (Aquafina®, a product of Pepsi-Cola®, Saudi Industrial Projects Company, Jeddah, Saudi Arabia) with different flavours, specifically berry (group II), peach (group III), lime (group IV), and pineapple FW (group V) were used. Other components found in FW used in this study include water, preservatives (sodium phosphate, potassium sorbet, sodium benzoate), acidifiers (citric acid, maleic acid), sweeteners (aspartame, potassium acesulfame, allose), acidity regulator (sodium citrate), and antioxidant agent (calcium disodium EDTA). […] The parallel design was used in this study to avoid animals’ physiological changes that could occur in the cross-over design, possibly affecting PK profiles of drug substances. All animals involved in the study were deprived from food, but not water/FW, for at least 12 h before drug administration. […] Drugs were administered to the rats between 7:00 am and 8:00 am. Rats were separately weighed from day one of water/FW consumption prior to drug administration for accurate dose calculation (Fig. S1). Blood samples (0.3 mL) were collected from each rat immediately prior to dosing (0 time) and at predetermined time points (0.5, 1, 2, 3, 5, 24, and 48 h) post drug administration. Blood samples were withdrawn and processed as described previously ([Maher et al., 2017]; [Maher, Alzoman & Shehata, 2016]; [Maher, Alzoman & Shehata, 2018]). Specifically, blood samples were withdrawn from the retro-orbital sinus into a series of heparinized tubes. Plasma was separated from collected blood samples by centrifugation at 4,500 rpm for 30 min where the centrifuge was maintained at 4 °C, and then stored at −20 °C until the day of analysis. […] A mixture of acetonitrile: water (80: 20, v/v), with 0.1% formic acid was used as a mobile phase at a flow rate of 0.2 mL/min ([Maher, Alzoman & Shehata, 2016]).
Cmax and tmax were obtained from the corresponding plasma concentration–time curve (Figs. 1A and 1B). […] The area under the plasma concentration–time curve from time 0 to the last sampling time t, 48 h (AUC0–t) was calculated using the trapezoidal rule. […] AUC0–∞ was also derived by summing up AUC0–t andthe area obtained by extrapolation from time t to ∞. The latter area was calculated from the division of the last measured concentration (Clast) by λz.
Results were presented as mean ± SD. PK parameters of all treated groups following the consumption of FW were compared with control (rats having free access to water), using one-way ANOVA and Bonferroni’s multiple comparisons test. Statistical significance was obtained with p-values ≤ 0.05.

[1] = oral, PKSolver sheet, dose 20 mg/kg, +Berry, read-out: Conc
[2] = oral, PKSolver sheet, dose 20 mg/kg, +Lime, read-out: Conc
[3] = oral, PKSolver sheet, dose 20 mg/kg, +Peach, read-out: Conc
[4] = oral, PKSolver sheet, dose 20 mg/kg, +Pineapple, read-out: Conc
[5] = oral, PKSolver sheet, dose 20 mg/kg, drug alone (water), read-out: Conc
[6] = po, rats, 20 mg/kg oral, +Berry FW, average, read-out: Conc*10 (ng/mL plasma)
[7] = po, rats, 20 mg/kg oral, +Lime FW, average, read-out: Conc*10 (ng/mL plasma)
[8] = po, rats, 20 mg/kg oral, +Peach FW, average, read-out: Conc*10 (ng/mL plasma)
[9] = po, rats, 20 mg/kg oral, +Pineapple FW, average, read-out: Conc*10 (ng/mL plasma)
[10] = po, rats, 20 mg/kg oral, drug alone (water), average, read-out: Conc*10 (ng/mL plasma)
[11] = po, rats, 20 mg/kg oral, four weeks berry FW, n = 5, mean (SD)
[12] = po, rats, 20 mg/kg oral, four weeks peach FW, n = 5, mean (SD)
[13] = po, rats, 20 mg/kg oral, four weeks pineapple FW, n = 5, mean (SD)
[14] = po, rats, 20 mg/kg oral, water (control), n = 5, mean (SD)
[15] = po, raw data sheet, from average profile, +Berry FW
[16] = po, raw data sheet, from average profile, +Lime FW
[17] = po, raw data sheet, from average profile, +Peach FW
[18] = po, raw data sheet, from average profile, +Pineapple FW
[19] = po, raw data sheet, from average profile, drug alone (water)
[20] = rats, berry FW relative to control (water)
[21] = rats, lime FW relative to control (water)
[22] = rats, peach FW relative to control (water)
[23] = rats, pineapple FW relative to control (water)
[24] = raw data sheet, +Berry FW vs drug alone
[25] = raw data sheet, +Lime FW vs drug alone
[26] = raw data sheet, +Peach FW vs drug alone
[27] = raw data sheet, +Pineapple FW vs drug alone

C#Cc1cccc(Nc2ncnc3cc(OCCOC)c(OCCOC)cc23)c1 [ERL, Erlotinib]
concentration at 0 h [1]: 6.83 ng/mL | concentration at 0.5 h [1]: 46.3 ng/mL | concentration at 1 h [1]: 76.7 ng/mL | concentration at 2 h [1]: 92.4 ng/mL | concentration at 3 h [1]: 110 ng/mL | concentration at 5 h [1]: 45.6 ng/mL | concentration at 24 h [1]: 11.9 ng/mL | concentration at 48 h [1]: 8.18 ng/mL | concentration at 0 h [2]: 19.8 ng/mL | concentration at 0.5 h [2]: 164 ng/mL | concentration at 1 h [2]: 103 ng/mL | concentration at 2 h [2]: 73.3 ng/mL | concentration at 3 h [2]: 57.6 ng/mL | concentration at 5 h [2]: 42.2 ng/mL | concentration at 24 h [2]: 32.1 ng/mL | concentration at 48 h [2]: 25.1 ng/mL | concentration at 0 h [3]: 5.49 ng/mL | concentration at 0.5 h [3]: 67.8 ng/mL | concentration at 1 h [3]: 81.7 ng/mL | concentration at 2 h [3]: 111 ng/mL | concentration at 3 h [3]: 43.2 ng/mL | concentration at 5 h [3]: 18.2 ng/mL | concentration at 24 h [3]: 11.4 ng/mL | concentration at 48 h [3]: 9.85 ng/mL | concentration at 0 h [4]: 10.6 ng/mL | concentration at 0.5 h [4]: 22.3 ng/mL | concentration at 1 h [4]: 36.6 ng/mL | concentration at 2 h [4]: 120 ng/mL | concentration at 3 h [4]: 45.3 ng/mL | concentration at 5 h [4]: 20.9 ng/mL | concentration at 24 h [4]: 15.8 ng/mL | concentration at 48 h [4]: 14 ng/mL | concentration at 0 h [5]: 9.48 ng/mL | concentration at 0.5 h [5]: 44.5 ng/mL | concentration at 1 h [5]: 105 ng/mL | concentration at 2 h [5]: 48.2 ng/mL | concentration at 3 h [5]: 29.7 ng/mL | concentration at 5 h [5]: 23.2 ng/mL | concentration at 24 h [5]: 12.3 ng/mL | concentration at 48 h [5]: 9.77 ng/mL | concentration at 0 h [6]: 6.83 ng/mL | concentration at 0.5 h [6]: 46.3 ng/mL | concentration at 1 h [6]: 76.7 ng/mL | concentration at 2 h [6]: 92.4 ng/mL | concentration at 3 h [6]: 110 ng/mL | concentration at 5 h [6]: 45.6 ng/mL | concentration at 24 h [6]: 11.9 ng/mL | concentration at 48 h [6]: 8.18 ng/mL | concentration at 0 h [7]: 19.8 ng/mL | concentration at 0.5 h [7]: 164 ng/mL | concentration at 1 h [7]: 103 ng/mL | concentration at 2 h [7]: 73.3 ng/mL | concentration at 3 h [7]: 57.6 ng/mL | concentration at 5 h [7]: 42.2 ng/mL | concentration at 24 h [7]: 32.1 ng/mL | concentration at 48 h [7]: 25.1 ng/mL | concentration at 0 h [8]: 5.49 ng/mL | concentration at 0.5 h [8]: 67.8 ng/mL | concentration at 1 h [8]: 81.7 ng/mL | concentration at 2 h [8]: 111 ng/mL | concentration at 3 h [8]: 43.2 ng/mL | concentration at 5 h [8]: 18.2 ng/mL | concentration at 24 h [8]: 11.4 ng/mL | concentration at 48 h [8]: 9.85 ng/mL | concentration at 0 h [9]: 10.6 ng/mL | concentration at 0.5 h [9]: 22.3 ng/mL | concentration at 1 h [9]: 36.6 ng/mL | concentration at 2 h [9]: 120 ng/mL | concentration at 3 h [9]: 45.3 ng/mL | concentration at 5 h [9]: 20.9 ng/mL | concentration at 24 h [9]: 15.8 ng/mL | concentration at 48 h [9]: 14 ng/mL | concentration at 0 h [10]: 9.48 ng/mL | concentration at 0.5 h [10]: 44.5 ng/mL | concentration at 1 h [10]: 105 ng/mL | concentration at 2 h [10]: 48.2 ng/mL | concentration at 3 h [10]: 29.7 ng/mL | concentration at 5 h [10]: 23.2 ng/mL | concentration at 24 h [10]: 12.3 ng/mL | concentration at 48 h [10]: 9.77 ng/mL | AUC(0-inf) [11]: 1380 ng·h/mL | CL/F [11]: 241 mL/min/kg | Cmax [11]: 111 ng/mL | Tmax (po, rats, 20 mg/kg oral, four weeks lime FW, n = 5, mean (SD)): 0.51 h | AUC(0-inf) [12]: 1530 ng·h/mL | CL/F [12]: 219 mL/min/kg | AUC(0-t) [12]: 827 ng·h/mL | Cmax [13]: 120 ng/mL | AUC(0-t) [13]: 942 ng·h/mL | AUC(0-inf) [14]: 1320 ng·h/mL | CL/F [14]: 253 mL/min/kg | Cmax [14]: 106 ng/mL | AUC(0-t) [14]: 827 ng·h/mL | Tmax [14]: 1.02 h | half-life [14]: 2100 min | AUC [15]: 1330 ng·h/mL | Cmax [15]: 110 ng/mL | Tmax [15]: 3 h | half-life [15]: 797 min | AUC [16]: 3340 ng·h/mL | Cmax [16]: 164 ng/mL | Tmax [16]: 0.5 h | half-life [16]: 2610 min | AUC [17]: 1210 ng·h/mL | Cmax [17]: 111 ng/mL | Tmax [17]: 2 h | half-life [17]: 1620 min | AUC [18]: 1670 ng·h/mL | Cmax [18]: 120 ng/mL | Tmax [18]: 2 h | half-life [18]: 2130 min | AUC [19]: 1240 ng·h/mL | Cmax [19]: 105 ng/mL | Tmax [19]: 1 h | half-life [19]: 1770 min | decrease in t1/2 [20]: ~49% | effect on exposure (AUC0–48) [20]: significantly affected | increase in AUC0–48 [20]: 42.35% | increase in tmax [20]: three times increase | decrease in apparent oral clearance (CL/F) [21]: 65% | decrease in tmax [21]: not statistically significant | increase in AUC0–∞ [21]: 200% | increase in Cmax [21]: 95% | increase in t1/2 [21]: ~65% | effect on Cmax, AUC0–48, AUC0–∞, and CL/F [22]: no significant effect | effect on PK parameters (overall) [22]: minimum effect; also recorded: least effect; also recorded: nearly negligible effect | increase in t1/2 [22]: about 41% | increase in tmax [22]: two times increase | increase in AUC0–∞ [23]: 86% | increase in t1/2 [23]: ~113.8% | increase in tmax [23]: two times increase | % change FOR AREA [24]: 7% FOR AREA | % change FOR C MAX [24]: 5% FOR C MAX | % change FOR AREA [25]: 170% FOR AREA | % change FOR C MAX [25]: 56% FOR C MAX | % change FOR AREA [26]: -2% FOR AREA | % change FOR C MAX [26]: 6% FOR C MAX | % change FOR AREA [27]: 35% FOR AREA | % change FOR C MAX [27]: 13% FOR C MAX
